Measurements published in patent publication US20120282646A1, “METHOD FOR ACTIVATING A NATURAL KILLER CELL BY ADJUSTING THE EXPRESSION OF THE SOCS2 GENE” (Korea Research Institute of Bioscience and Biotechnology, priority 2009, published 2012).
Where a SMILES comes first, the peptide text is derived from it. The star is where a group is joined. Cbz = O=C(OCc1ccccc1)*

Legend:
Type in all cases: cell-based, human
NK-92 cells [1] = assay: Cytotoxicity of MAPK inhibitor-treated NK-92 cells against K562; settings: NK-92 cells treated with 10 mM inhibitor; compared with ERK and p38 inhibitors
Pyk2 [2] = assay: GST pull down of GST-SOCS2 and Flag-Pyk2 in 293T cells; settings: MG132-containing medium vs general culture medium
Method: The GST expression vector and pFlag-Pyk2, or pGST-SOCS2 and pFlag-Pyk2 were cotransformed into 293T cells using Lipofectamin 2000 (Invitrogen, U.S.A.). After 4 hr of transformation, the medium was replaced to a general culture medium or MG132 (proteasome inhibitor)-containing medium, and […], cells were lysed. The each cell lysate was allowed to react with glutathione-sepharose bead (GE Healthcare, U.S.A.) at 4° C. for 4 hr. Western blot analysis was performed by the same method in Example <2-1> using anti-Flag primary antibody (Santa Cruz, U.S.A.) or anti-GST primary antibody (Santa Cruz, U.S.A.).

Pyk2 [3] = assay: Immunoprecipitation of Flag-Pyk2, GST-SOCS2 and HA-ubiquitin in 293T cells; settings: MG132-containing medium vs general culture medium
Method: In order to determine whether SOCS2 inhibits the proteasome-mediated Pyk2 degradation or not, the following experiment was carried out. First of all, pGST-SOCS2, pFlag-Pyk2, and HA-ubiquitin (AddGene) were cotransformed into 293T cells using Lipofectamin 2000. After 4 hr of transformation, the medium was replaced to a general culture medium or MG132 (proteasome inhibitor)-containing medium, and 24 hr later, cells were lysed. The each cell lysate was allowed to react with anti-Flag antibody or anti-GST antibody. The antigen-antibody complexes were precipitated by incubation at 4° C. for 1 day with G-protein-conjugated agarose (Roshe, Switzerland). The immunoprecipitated complexes were washed with 1×PBS. Western blot analysis was performed by the same method in Example <2-1> using anti-GST antibody, anti-Flag antibody, or anti-HA antibody (Santa Cruz, U.S.A.).

Pyk2 [4] = assay: Immunoprecipitation for ubiquitination of Pyk2 after IL-15 in NK-92 cells; settings: NK-92 cells stimulated with IL-15, anti-Pyk2 immunoprecipitation
Method: To determine whether the decrease in p-Pyk2^Tyr402 by SOCS2 expression, confirmed in Example <13> resulted from the ubiquitin-mediated proteasomal degradation of p-Pyk2^Tyr402 by increased SOCS2 by IL-15, the following experiment was carried out. NK-92 cells stimulated with IL-15 as in Example <2-2> were lysed and the cell lysates were allowed to react with anti-Pyk2 antibody. The antigen-antibody complexes were precipitated by incubation at 4° C. for 1 day with G-protein-conjugated agarose. The immunoprecipitated complexes were washed with 1×PBS. Western blot analysis was performed by the same method in Example <2-1> using anti-ubiquitin antibody (Santa Cruz, U.S.A.), anti-SOCS2 antibody, anti-p-Pyk2^Tyr402 antibody, anti-Pyk2 antibody, and anti-GAPDH antibody.

NK-92 cells [5] = assay: socs2 mRNA expression by real time PCR in cytokine-treated NK-92 cells
Method: NK cell differentiation is mediated by IL-15 (Interleukin 15) cytokine. To determine whether the SOCS2 upregulation following NK cell differentiation was induced by IL-15, the present inventors experimented on the IL-15-induced SOCS2 upregulation in mature NK cells. The experimented NK-92 human NK cells and primary NK cells live and proliferate in the condition where IL-15 exists. Accordingly, to measure the effect of IL-15, deprivation of IL-15 was carried out by culturing cells in a medium without IL-15 for 24 hr prior to IL-15 treatment, and then the medium was replaced with a medium containing 10 ng/mL IL-15 to make a cell differentiation condition. Real time PCR was carried out with NK-92 cells at 4, 8, 12, and 16th hr after the replacement of the medium using the same method in Example <3-1-1> to measure the amount of socs2 mRNA expression.
Specifically, each NK cell was collected and total RNA was extracted using Trizol Reagent (Invitrogen, U.S.A.). Then, 1 μg of the RNA was reverse transcribed into cDNA using reverse transcriptase superscript II (Invitrogen). […] Concurrently, using GAPDH (Glyceraldehyde-3-phosphate dehydrogenase) as a quantitative control, real time PCR was performed with GAPDH primer pair of Table 2. […]

primary NK cells [6] = assay: socs1, socs2, socs3 mRNA expression by real time PCR in IL-15-stimulated primary NK cells; settings: IL-15 stimulation after deprivation
Method: Deprivation and IL-15 stimulation was carried out with primary NK cells using the same method in Example <2-2>. The amounts of mRNA expression of socs1, socs2 and socs3 were measured by real time PCR. Primers in Table 1 and Table 3 were used.
Specifically, each NK cell was collected and total RNA was extracted using Trizol Reagent (Invitrogen, U.S.A.). Then, 1 μg of the RNA was reverse transcribed into cDNA using reverse transcriptase superscript II (Invitrogen). Using the cDNA as template, real time PCR was performed with the 2×SYBR Premix Ex Taq™ (TaKaRa, Japan) and SOCS2 primer pairs of Table 2 (Exicycler version 2, Bioneer, Republic of Korea). Concurrently, using GAPDH (Glyceraldehyde-3-phosphate dehydrogenase) as a quantitative control, real time PCR was performed with GAPDH primer pair of Table 2. The PCR condition was as follows: denaturation of 10 min at 95° C.; 40 cycles of […], 30 sec at 60° C., and 1 min at 72° C.; and extension of 8 min at 72° C. followed by cooling to room temperature. After analyzing real time PCR data by the comparative CT (2^−ΔΔCt) method which normalizes the amount of socs2 expression of each sample to the amount of GAPDH expression, the relative amount of SOCS2 expression in differentiated NK cells at each day to the amount of socs2 expression in primary NK cells was shown as a graph in FIG. 1(a).

NK-92 cells [7] = assay: Western blot of SOCS2 and p-Pyk2Tyr402 after IL-15 in NK-92 cells; settings: IL-15 for 6, 12 or 24 hr
Method: (§1) Each NK cell was lysed in RIPA buffer (50 mM Tris-HCl, pH 7.4, 150 mM NaCl, 0.25% SDS, 1% NP-40, 1 mM EDTA, a protease inhibitor cocktail, and a phosphate inhibitor cocktail) and the concentration of protein present in the whole cell lysate was determined using BCA Protein Assay Kit (Pierce, U.S.A.). 30 μg of each protein sample was resolved using 10 or 12% SDS-PAGE gel and transferred to an Immobilon-P membrane (Millipore Corporation, U.S.A.). The membrane was blocked with 5% skim milk and treated with anti-SOCS2 antibody (Santa Cruz, U.S.A.) as a primary antibody for 1 day at 4° C. HRP-conjugated anti-rabbit secondary antibody (Santa Cruz, U.S.A.) was attached to the primary antibody-treated membrane, and then, Immobilon Western Chemiluminescent HRP Substrate (Milipore Corporation) was added thereto. The membrane was exposed to X-ray film. As quantitative control, the amount of expression of GAPDH was examined using anti-GAPDH primary antibody (Santa Cruz, U.S.A.) by the above method.
To assess how SOCS2 which binds with p-Pyk2^Tyr402 in NK cells regulates Pyk2, the following experiment was carried out. With NK-92 cells cultured without or with IL-15 for 6, 12 or 24 hr using the same method in Example <2-2>, Western blot analysis was carried out using the same method in Example <2-1> with anti-SOCS2 antibody, anti-p-Pyk2^Tyr402 antibody, anti-Pyk2 antibody and anti-GAPDH antibody. […]

primary NK cells [8] = assay: Western blot of SOCS2 and p-Pyk2Tyr402 after IL-15 in primary NK cells; settings: primary NK cells with or without IL-15
Method: as §1
NK cells cultured without or with IL-15, Western blot analysis was carried out using the same method in Example <2-1> with anti-SOCS2 antibody, anti-p-Pyk2^Tyr402 antibody, anti-Pyk2 antibody and anti-GAPDH antibody.

[9] = tested on: NK-92 cells and primary NK cells; assay: SOCS2 protein expression by Western blot after IL-15 stimulation; settings: IL-15 stimulation after deprivation
Method: as §1, with “method. […]” for “method.”

SOCS2 = SOCS2 protein knockdown by siRNA, Western blot; settings: primary NK cells transduced with siRNA, IL-15 stimulation 16 hr
Method: as §1
IL-15 is an essential cytokine for NK cell differentiation. With SOCS2 expression inhibited, the present inventors measured the NK cell differentiation by IL-15 stimulation. […] Concurrently, β-actin expression was also observed by using anti-β-actin primary antibody (Santa Cruz, U.S.A.) as a quantitative control.

primary NK cells [10] = assay: NK cell differentiation, CD-56 expression by FACS; settings: primary NK cells transduced with siRNA, day 2, 3, 5, IL-15 stimulation
Method: Also, to determine whether the inhibition of SOCS2 expression affected the NK cell differentiation or not, primary NK cells were transduced with siRNA and CD-56 expression was measured by performing FACS on the cells at 2, 3, and 5th day.

## Oc1c2ccccc2c2c3c(cccc13)N=N2 [JNK inhibitor, SP600125]
NK-92 cells [1]
  cytotoxicity against the K562 cancer cell line: most significantly reduced

## CC(C)C[C@@H](C=O)NC(=O)[C@H](CC(C)C)NC(=O)[C@H](CC(C)C)NC(=O)OCc1ccccc1 [MG132] (Cbz-Leu-Leu-Leu-aldehyde)
Pyk2 [2]
  Flag band (Flag-Pyk2) in GST pull down: significantly large Flag band
Pyk2 [3]
  GST band and HA (ubiquitin) bands in anti-Flag immunoprecipitate: significantly large GST band and more HA bands

## IL-15: cytokine priming NK cell differentiation (Peprotech)
Pyk2 [4]
  phosphorylation of Pyk2: phosphorylation of Pyk2 decreased
  ubiquitination of Pyk2: ubiquitination of Pyk2 increased
NK-92 cells [5]; NK-92 cells deprived of IL-15 24 hr, then 10 ng/mL IL-15, 4, 8, 12, 16 hr
  SOCS2 expression (socs2 mRNA): SOCS2 expression increased in NK-92 cells
NK-92 cells [5]; deprived NK-92 cells, 30 ng/mL IL7, IL-12, IL-15, IL-18, IL-21 for 16 hr
  SOCS2 expression (mRNA), specificity among cytokines: SOCS2 expression was induced specifically by IL-15 stimulation
Primary NK cells [6]
  mRNA expression of socs1, socs2 and socs3: only socs2 mRNA expression among SOCS family members increased
NK-92 cells [7]
  SOCS2 expression: increased in an IL-15 stimulation time-dependent manner
  phosphorylation of tyrosine 402 in Pyk2: decreased
Primary NK cells [8]
  expression of SOCS2 and phosphorylation of Pyk2: induced the expression of SOCS2 and the decrease in the phosphorylation of Pyk2
[9]
  SOCS2 protein expression: IL-15 stimulated SOCS2 expression was observed in both NK-92 cells and primary NK cells

## SOCS2 siRNA: SOCS2 siRNA (Dharmacon, SEQ ID NO.12: 5′-CGACUACUAUGUUCAGAUG-3′) (listed as RNA, chemistry not given here)
SOCS2
  SOCS2 protein expression: SOCS2 protein expression was inhibited
Primary NK cells [10]
  CD-56 expression (NK cell differentiation): increased CD-56 expression similarly regardless of whether SOCS2 protein was expressed or not
